± gives the expanded uncertainty stated by the source.
How the values were obtained:
[1] = excess molar enthalpy (molar enthalpy of mixing); xn = mol fraction of the nth substance listed; conditions: 14100 kPa, Liquid, Flow calorimetry
[2] = Liquid, Closed cell (Static) method

COC(=O)C(C)O (stereo not drawn) [methyl 2-hydroxypropanoate] + O
excess molar enthalpy [kcal/mol], [1]
Conditions	303.15 K	333.15 K
x2 = 0.0632	0.004 ± 0.000215	-0.00394 ± 0.000215
x2 = 0.1202	0.00357 ± 0.000213	-0.00928 ± 0.000311
x2 = 0.219	-0.000437 ± 0.000189	-0.0211 ± 0.000526
x2 = 0.3016	-0.00462 ± 0.000222	-0.0288 ± 0.000693
x2 = 0.3718	-0.00866 ± 0.000287	-0.0345 ± 0.000813
x2 = 0.4321	-0.0134 ± 0.000382	-0.0398 ± 0.000908
x2 = 0.5083	-0.0221 ± 0.00055	-0.0479 ± 0.00108
x2 = 0.5711	-0.0295 ± 0.000693	-0.0552 ± 0.00124
x2 = 0.6397	-0.0384 ± 0.000884	-0.0643 ± 0.00143
x2 = 0.7195	-0.0493 ± 0.00112	-0.0756 ± 0.00167
x2 = 0.7803	-0.0572 ± 0.00129	-0.0839 ± 0.00184
x2 = 0.8419	-0.0642 ± 0.00143	-0.0901 ± 0.00198
x2 = 0.8988	-0.0647 ± 0.00143	-0.0891 ± 0.00196
x2 = 0.9411	-0.0552 ± 0.00124	-0.0767 ± 0.0017
x2 = 0.9796	-0.0288 ± 0.000693	-0.0394 ± 0.000908

COC(=O)C(C)O (stereo not drawn) [methyl 2-hydroxypropanoate]
[2]
Conditions	vapor or sublimation pressure [kPa]
283.15 K	0.17 ± 0.04
293.15 K	0.43 ± 0.04
303.15 K	0.87 ± 0.04
